Measured values taken from ChEMBL document CHEMBL4507278 (2021).

Legend:
[1] = target: Tyrosine-protein kinase ABL1 (Homo sapiens) (UniProt P00519); settings: Compound concentration 1000.0 nM
[2] = target: Activin receptor type-1-like (Homo sapiens) (UniProt P37023); settings: Compound concentration 1000.0 nM
[3] = target: NUAK family SNF1-like kinase 1 (Homo sapiens) (UniProt O60285); settings: Compound concentration 1000.0 nM
[4] = target: Aurora kinase B (Homo sapiens) (UniProt Q96GD4); settings: Compound concentration 1000.0 nM
[5] = target: Serine/threonine-protein kinase B-raf (Homo sapiens) (UniProt P15056); settings: Compound concentration 1000.0 nM
[6] = target: Calcium/calmodulin-dependent protein kinase type 1B (Homo sapiens) (UniProt Q6P2M8); settings: Compound concentration 1000.0 nM
[7] = target: Calcium/calmodulin-dependent protein kinase type 1D (Homo sapiens) (UniProt Q8IU85); settings: Compound concentration 1000.0 nM
[8] = target: Cyclin-dependent kinase 13 (Homo sapiens) (UniProt Q14004); settings: Compound concentration 1000.0 nM
[9] = target: Cyclin-dependent kinase 4 (Homo sapiens) (UniProt P11802); settings: Compound concentration 1000.0 nM
[10] = target: Cyclin-dependent kinase 9 (Homo sapiens) (UniProt P50750); settings: Compound concentration 1000.0 nM
[11] = target: Dual specificity protein kinase CLK4 (Homo sapiens) (UniProt Q9HAZ1); settings: Compound concentration 1000.0 nM
[12] = target: Casein kinase I isoform delta (Homo sapiens) (UniProt P48730); settings: Compound concentration 1000.0 nM
[13] = target: Death-associated protein kinase 1 (Homo sapiens) (UniProt P53355); settings: Compound concentration 1000.0 nM
[14] = target: Death-associated protein kinase 2 (Homo sapiens) (UniProt Q9UIK4); settings: Compound concentration 1000.0 nM
[15] = target: Dual specificity tyrosine-phosphorylation-regulated kinase 1A (Homo sapiens) (UniProt Q13627); settings: Compound concentration 1000.0 nM
[16] = target: Focal adhesion kinase 1 (Homo sapiens) (UniProt Q05397); settings: Compound concentration 1000.0 nM
[17] = tested on: Receptor-type tyrosine-protein kinase FLT3 (Homo sapiens), P36888 [N841I]; settings: Compound concentration 1000.0 nM
[18] = target: Glycogen synthase kinase-3 beta (Homo sapiens) (UniProt P49841); settings: Compound concentration 1000.0 nM
[19] = target: Hormonally up-regulated neu tumor-associated kinase (Homo sapiens) (UniProt P57058); settings: Compound concentration 1000.0 nM
[20] = target: Interleukin-1 receptor-associated kinase 4 (Homo sapiens) (UniProt Q9NWZ3); settings: Compound concentration 1000.0 nM
[21] = target: Dual specificity mitogen-activated protein kinase kinase 2 (Homo sapiens) (UniProt P36507); settings: Compound concentration 1000.0 nM
[22] = target: Dual specificity mitogen-activated protein kinase kinase 5 (Homo sapiens) (UniProt Q13163); settings: Compound concentration 1000.0 nM
[23] = target: Mitogen-activated protein kinase kinase kinase 11 (Homo sapiens) (UniProt Q16584); settings: Compound concentration 1000.0 nM
[24] = target: Serine/threonine-protein kinase Nek10 (Homo sapiens) (UniProt Q6ZWH5); settings: Compound concentration 1000.0 nM
[25] = target: Serine/threonine-protein kinase PAK 2 (Homo sapiens) (UniProt Q13177); settings: Compound concentration 1000.0 nM
[26] = target: Phosphatidylinositol 4,5-bisphosphate 3-kinase catalytic subunit beta isoform (Homo sapiens) (UniProt P42338); settings: Compound concentration 1000.0 nM
[27] = target: Serine/threonine-protein kinase N2 (Homo sapiens) (UniProt Q16513); settings: Compound concentration 1000.0 nM
[28] = target: Serine/threonine-protein kinase PLK4 (Homo sapiens) (UniProt O00444); settings: Compound concentration 1000.0 nM
[29] = target: Serine/threonine-protein kinase D2 (Homo sapiens) (UniProt Q9BZL6); settings: Compound concentration 1000.0 nM
[30] = target: Protein-tyrosine kinase 2-beta (Homo sapiens) (UniProt Q14289); settings: Compound concentration 1000.0 nM
[31] = target: Ribosomal protein S6 kinase alpha-5 (Homo sapiens) (UniProt O75582); settings: Compound concentration 1000.0 nM
[32] = target: Ribosomal protein S6 kinase alpha-3 (Homo sapiens) (UniProt P51812); settings: Compound concentration 1000.0 nM
[33] = target: SRSF protein kinase 1 (Homo sapiens) (UniProt Q96SB4); settings: Compound concentration 1000.0 nM
[34] = target: Testis-specific serine/threonine-protein kinase 3 (Homo sapiens) (UniProt Q96PN8); settings: Compound concentration 1000.0 nM
[35] = target: Tyrosine-protein kinase receptor TYRO3 (Homo sapiens) (UniProt Q06418); settings: Compound concentration 1000.0 nM
[36] = target: Serine/threonine-protein kinase 32B (Homo sapiens) (UniProt Q9NY57); settings: Compound concentration 1000.0 nM
[37] = target: Serine/threonine-protein kinase 25 (Homo sapiens) (UniProt O00506); settings: Compound concentration 1000.0 nM
[38] = target: T1, 5-hydroxytryptamine receptor 1A (Homo sapiens) (UniProt P08908); settings: Compound concentration 10.0 uM
T1 sequence (whole entry): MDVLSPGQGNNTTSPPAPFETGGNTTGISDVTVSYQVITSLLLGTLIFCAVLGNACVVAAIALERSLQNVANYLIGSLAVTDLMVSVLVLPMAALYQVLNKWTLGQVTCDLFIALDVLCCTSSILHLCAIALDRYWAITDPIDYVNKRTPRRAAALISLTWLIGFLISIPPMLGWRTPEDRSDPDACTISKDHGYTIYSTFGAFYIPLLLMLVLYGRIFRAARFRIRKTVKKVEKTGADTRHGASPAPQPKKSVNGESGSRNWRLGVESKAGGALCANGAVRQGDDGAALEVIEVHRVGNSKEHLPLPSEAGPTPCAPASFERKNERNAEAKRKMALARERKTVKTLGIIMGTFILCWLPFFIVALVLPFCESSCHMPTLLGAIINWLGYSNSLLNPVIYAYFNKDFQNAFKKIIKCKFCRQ

[39] = target: Histamine H4 receptor (Homo sapiens) (UniProt Q9H3N8); settings: Compound concentration 10.0 uM
[40] = target: Beta-3 adrenergic receptor (Homo sapiens) (UniProt P13945); settings: Compound concentration 10.0 uM

Cyclin-dependent kinase 4 (Homo sapiens), sequence (P11802 whole entry): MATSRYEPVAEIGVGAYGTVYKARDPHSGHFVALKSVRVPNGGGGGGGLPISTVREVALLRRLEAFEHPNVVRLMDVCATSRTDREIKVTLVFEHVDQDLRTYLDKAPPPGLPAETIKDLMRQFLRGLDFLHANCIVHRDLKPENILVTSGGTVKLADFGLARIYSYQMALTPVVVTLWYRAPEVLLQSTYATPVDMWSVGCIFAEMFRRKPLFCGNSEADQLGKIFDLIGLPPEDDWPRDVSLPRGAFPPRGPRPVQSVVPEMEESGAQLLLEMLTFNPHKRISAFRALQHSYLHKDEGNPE
NUAK family SNF1-like kinase 1 (Homo sapiens), sequence (O60285 whole entry): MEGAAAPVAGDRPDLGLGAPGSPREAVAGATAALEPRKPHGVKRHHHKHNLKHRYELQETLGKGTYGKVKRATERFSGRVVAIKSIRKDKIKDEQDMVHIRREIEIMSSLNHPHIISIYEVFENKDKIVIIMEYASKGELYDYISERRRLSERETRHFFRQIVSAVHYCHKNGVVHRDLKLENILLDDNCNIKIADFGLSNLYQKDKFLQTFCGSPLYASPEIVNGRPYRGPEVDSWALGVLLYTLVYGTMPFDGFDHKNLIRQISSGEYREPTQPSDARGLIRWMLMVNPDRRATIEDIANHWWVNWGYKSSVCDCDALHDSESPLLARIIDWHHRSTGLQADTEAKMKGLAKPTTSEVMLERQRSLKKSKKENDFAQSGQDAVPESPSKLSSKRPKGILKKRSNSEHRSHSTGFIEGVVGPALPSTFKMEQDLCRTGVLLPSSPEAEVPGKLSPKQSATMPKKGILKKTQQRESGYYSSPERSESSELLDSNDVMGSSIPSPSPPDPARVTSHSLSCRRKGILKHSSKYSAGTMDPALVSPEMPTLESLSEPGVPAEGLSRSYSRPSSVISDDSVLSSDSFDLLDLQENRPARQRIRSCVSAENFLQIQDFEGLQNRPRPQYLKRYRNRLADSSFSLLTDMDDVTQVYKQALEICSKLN
Tyrosine-protein kinase ABL1 (Homo sapiens), sequence (P00519 whole entry): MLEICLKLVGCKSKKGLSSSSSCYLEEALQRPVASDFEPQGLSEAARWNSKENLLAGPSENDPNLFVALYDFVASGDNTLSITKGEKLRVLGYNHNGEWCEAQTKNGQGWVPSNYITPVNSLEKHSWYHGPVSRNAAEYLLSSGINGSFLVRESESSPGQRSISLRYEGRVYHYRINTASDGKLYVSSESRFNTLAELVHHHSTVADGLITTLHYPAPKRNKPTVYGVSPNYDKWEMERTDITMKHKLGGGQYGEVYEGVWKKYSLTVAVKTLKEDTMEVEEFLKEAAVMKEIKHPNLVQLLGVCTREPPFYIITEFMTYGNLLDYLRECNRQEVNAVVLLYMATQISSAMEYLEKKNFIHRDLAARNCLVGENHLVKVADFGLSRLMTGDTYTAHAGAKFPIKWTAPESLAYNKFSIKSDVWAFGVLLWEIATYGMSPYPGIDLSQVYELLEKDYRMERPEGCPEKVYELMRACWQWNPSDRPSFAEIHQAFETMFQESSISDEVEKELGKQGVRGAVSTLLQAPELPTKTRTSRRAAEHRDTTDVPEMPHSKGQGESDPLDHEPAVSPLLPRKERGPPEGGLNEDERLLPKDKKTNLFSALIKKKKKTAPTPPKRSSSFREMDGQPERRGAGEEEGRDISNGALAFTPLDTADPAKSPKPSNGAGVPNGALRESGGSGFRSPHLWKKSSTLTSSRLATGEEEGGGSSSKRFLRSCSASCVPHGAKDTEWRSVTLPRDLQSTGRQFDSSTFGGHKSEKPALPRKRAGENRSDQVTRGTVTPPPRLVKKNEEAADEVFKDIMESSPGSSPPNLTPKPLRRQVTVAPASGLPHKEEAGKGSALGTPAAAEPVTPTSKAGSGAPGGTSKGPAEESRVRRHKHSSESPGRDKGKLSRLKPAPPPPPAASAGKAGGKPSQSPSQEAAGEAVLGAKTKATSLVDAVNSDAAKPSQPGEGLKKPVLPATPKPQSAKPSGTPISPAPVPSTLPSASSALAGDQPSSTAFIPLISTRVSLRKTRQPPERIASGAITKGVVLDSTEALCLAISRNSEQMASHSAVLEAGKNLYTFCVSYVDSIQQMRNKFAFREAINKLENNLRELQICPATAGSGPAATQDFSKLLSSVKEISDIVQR
Tyrosine-protein kinase receptor TYRO3 (Homo sapiens), sequence (Q06418 whole entry): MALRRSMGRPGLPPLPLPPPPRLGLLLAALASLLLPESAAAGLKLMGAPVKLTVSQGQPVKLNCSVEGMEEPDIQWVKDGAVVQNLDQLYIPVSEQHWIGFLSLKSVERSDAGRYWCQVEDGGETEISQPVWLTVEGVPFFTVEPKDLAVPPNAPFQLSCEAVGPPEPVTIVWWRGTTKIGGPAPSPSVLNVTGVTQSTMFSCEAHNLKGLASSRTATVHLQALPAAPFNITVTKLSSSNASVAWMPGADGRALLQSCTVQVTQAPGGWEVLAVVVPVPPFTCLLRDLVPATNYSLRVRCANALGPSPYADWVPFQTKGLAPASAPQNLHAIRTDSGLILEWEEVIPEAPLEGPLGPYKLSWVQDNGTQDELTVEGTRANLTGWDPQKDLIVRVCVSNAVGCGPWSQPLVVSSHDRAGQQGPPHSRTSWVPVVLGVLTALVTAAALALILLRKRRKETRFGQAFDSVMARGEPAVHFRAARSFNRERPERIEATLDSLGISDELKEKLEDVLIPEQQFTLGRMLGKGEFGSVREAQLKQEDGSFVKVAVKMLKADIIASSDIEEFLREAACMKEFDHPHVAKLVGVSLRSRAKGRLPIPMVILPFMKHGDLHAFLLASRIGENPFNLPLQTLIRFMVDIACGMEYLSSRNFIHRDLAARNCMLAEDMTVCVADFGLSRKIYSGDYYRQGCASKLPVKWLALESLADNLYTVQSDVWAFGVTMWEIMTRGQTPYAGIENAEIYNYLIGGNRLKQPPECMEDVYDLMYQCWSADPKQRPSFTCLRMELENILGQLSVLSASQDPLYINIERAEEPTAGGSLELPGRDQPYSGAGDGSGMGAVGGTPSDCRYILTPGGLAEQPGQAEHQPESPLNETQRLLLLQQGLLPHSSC
Ribosomal protein S6 kinase alpha-5 (Homo sapiens), sequence (O75582 whole entry, looked up): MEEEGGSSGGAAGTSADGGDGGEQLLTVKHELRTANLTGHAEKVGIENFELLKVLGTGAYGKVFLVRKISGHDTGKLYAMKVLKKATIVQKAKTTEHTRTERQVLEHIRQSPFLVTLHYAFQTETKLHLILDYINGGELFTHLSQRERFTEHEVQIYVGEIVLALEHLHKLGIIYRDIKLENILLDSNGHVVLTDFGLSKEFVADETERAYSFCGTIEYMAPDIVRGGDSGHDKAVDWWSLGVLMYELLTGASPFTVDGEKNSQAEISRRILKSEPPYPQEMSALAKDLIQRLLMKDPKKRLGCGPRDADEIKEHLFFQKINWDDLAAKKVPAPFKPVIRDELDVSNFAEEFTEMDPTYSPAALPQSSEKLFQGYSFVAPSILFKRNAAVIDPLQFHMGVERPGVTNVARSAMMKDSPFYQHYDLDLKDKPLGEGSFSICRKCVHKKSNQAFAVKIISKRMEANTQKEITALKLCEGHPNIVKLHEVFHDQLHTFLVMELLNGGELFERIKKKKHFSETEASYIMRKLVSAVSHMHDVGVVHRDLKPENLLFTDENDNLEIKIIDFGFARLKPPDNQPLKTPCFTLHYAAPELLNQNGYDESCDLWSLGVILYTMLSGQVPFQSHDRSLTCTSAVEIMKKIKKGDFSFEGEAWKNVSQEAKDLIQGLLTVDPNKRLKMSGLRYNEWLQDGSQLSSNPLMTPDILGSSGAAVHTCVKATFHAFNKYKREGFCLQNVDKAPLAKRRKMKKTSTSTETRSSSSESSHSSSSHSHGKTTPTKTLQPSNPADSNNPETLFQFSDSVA
Serine/threonine-protein kinase Nek10 (Homo sapiens), sequence (Q6ZWH5 whole entry): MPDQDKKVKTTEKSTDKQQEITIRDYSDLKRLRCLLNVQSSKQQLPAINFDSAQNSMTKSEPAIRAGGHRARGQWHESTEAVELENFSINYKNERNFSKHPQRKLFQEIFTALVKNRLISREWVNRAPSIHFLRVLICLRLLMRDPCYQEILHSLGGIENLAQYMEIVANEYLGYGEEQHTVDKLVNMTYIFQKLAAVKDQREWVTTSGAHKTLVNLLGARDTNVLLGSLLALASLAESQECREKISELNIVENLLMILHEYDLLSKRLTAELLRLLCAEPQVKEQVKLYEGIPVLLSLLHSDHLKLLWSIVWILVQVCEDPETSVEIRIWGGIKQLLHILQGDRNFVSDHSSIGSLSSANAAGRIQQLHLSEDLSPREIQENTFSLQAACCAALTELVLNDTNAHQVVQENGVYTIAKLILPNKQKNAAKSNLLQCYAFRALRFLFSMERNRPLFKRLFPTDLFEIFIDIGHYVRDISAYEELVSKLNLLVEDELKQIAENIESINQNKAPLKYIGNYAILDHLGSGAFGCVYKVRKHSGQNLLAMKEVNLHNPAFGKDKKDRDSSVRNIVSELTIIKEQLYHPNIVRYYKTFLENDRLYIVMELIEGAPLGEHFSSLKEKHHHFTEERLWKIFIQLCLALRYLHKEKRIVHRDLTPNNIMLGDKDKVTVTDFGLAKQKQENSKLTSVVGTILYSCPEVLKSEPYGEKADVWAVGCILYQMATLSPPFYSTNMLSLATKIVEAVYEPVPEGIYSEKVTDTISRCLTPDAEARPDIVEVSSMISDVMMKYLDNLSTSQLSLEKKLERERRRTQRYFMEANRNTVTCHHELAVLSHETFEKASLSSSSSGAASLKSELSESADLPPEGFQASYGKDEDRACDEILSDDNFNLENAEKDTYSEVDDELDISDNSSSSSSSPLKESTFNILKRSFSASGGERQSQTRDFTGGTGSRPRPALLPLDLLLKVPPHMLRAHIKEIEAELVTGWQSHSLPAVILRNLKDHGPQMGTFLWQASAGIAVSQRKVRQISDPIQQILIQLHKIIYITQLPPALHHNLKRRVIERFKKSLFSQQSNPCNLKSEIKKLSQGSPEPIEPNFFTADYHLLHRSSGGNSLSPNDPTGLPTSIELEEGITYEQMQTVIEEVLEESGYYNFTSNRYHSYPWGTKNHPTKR

CS(=O)(=O)c1cc(C2(NC(=O)c3cncc4c3cnn4-c3ccc(F)cc3)CC2)ccn1 [BI 639667]
inactive: residual activity [1] 86% | residual activity [2] 100% | residual activity [3] 91% | residual activity [4] 88% | residual activity [5] 87% | residual activity [6] 78% | residual activity [7] 90% | residual activity [8] 100% | residual activity [9] 83% | residual activity [10] 91% | residual activity [11] 100% | residual activity [12] 99% | residual activity [13] 83% | residual activity [14] 96% | residual activity [15] 81% | residual activity [16] 100% | residual activity [17] 100% | residual activity [18] 85% | residual activity [19] 100% | residual activity [20] 100% | residual activity [21] 80% | residual activity [22] 80% | residual activity [23] 100% | residual activity [24] 97% | residual activity [25] 100% | residual activity [26] 100% | residual activity [27] 100% | residual activity [28] 85% | residual activity [29] 97% | residual activity [30] 100% | residual activity [31] 61% | residual activity [32] 99% | residual activity [33] 100% | residual activity [34] 100% | residual activity [35] 91% | residual activity [36] 100% | residual activity [37] 100% | inhibition [38] -9.71% | inhibition [39] 1.36% | inhibition [40] -5.91%

CS(=O)(=O)NCC[C@H](NC(=O)c1cncc2c1cnn2-c1ccc(F)cc1)c1ccnc(S(C)(=O)=O)c1 [BI 9307]
inactive: residual activity [1] 90% | residual activity [2] 96% | residual activity [3] 85% | residual activity [4] 100% | residual activity [5] 79% | residual activity [6] 85% | residual activity [7] 98% | residual activity [8] 100% | residual activity [9] 100% | residual activity [10] 100% | residual activity [11] 85% | residual activity [12] 100% | residual activity [13] 100% | residual activity [14] 100% | residual activity [15] 100% | residual activity [16] 93% | residual activity [17] 91% | residual activity [18] 100% | residual activity [19] 100% | residual activity [20] 100% | residual activity [21] 100% | residual activity [22] 92% | residual activity [23] 100% | residual activity [24] 100% | residual activity [25] 71% | residual activity [26] 93% | residual activity [27] 100% | residual activity [28] 89% | residual activity [29] 94% | residual activity [30] 84% | residual activity [31] 100% | residual activity [32] 100% | residual activity [33] 83% | residual activity [34] 100% | residual activity [35] 94% | residual activity [36] 67% | residual activity [37] 78% | inhibition [38] 13.3% | inhibition [39] -0.39% | inhibition [40] -5.01%
